Results on four molecules are retold here after patent publication US20250304921A1 (University of Pittsburgh-Of The Commonwealth System of …, priority 2022, published 2025).

Entries after “also recorded” stand apart in the source; their conditions may differ. Residues, ends and D or L forms follow the SMILES beside them. *: point of attachment. Decanoyl = CCCCCCCCCC(=O)*; CH2Cl = ClC*

Assay [1] has as its system rFeMV^US5Venus (6). The assay is classed as cell-based, Feline morbillivirus (FeMV).
Assay [2] concerns rFeMV^US5Venus (6). The assay is classed as cell-based, Feline morbillivirus (FeMV). This is another data set of the same source.
The test system of assay [3] is rFeMV^US5Venus (6) or rFeMV^US5Venus (3). The assay is classed as cell-based, Feline morbillivirus (FeMV).
The subject of assay [4] is NiV^MA F and G glycoproteins. The assay is classed as cell-based, Nipah virus (NiV).
A further assay concerns FeMV^US5F. The assay is described as follows: Western blot of AU1-tagged F glycoprotein processing (F0 to F1) in transfected cells. The assay is classed as cell-based, Feline morbillivirus (FeMV). The conditions noted are these: E64d 20 μM vs DMSO; transfected CRFK cells, lysates at 2 d.p.t. On the procedure: (§1) CRFK cells were transfected with pCG-FeMV^US5F, pCG-FeMV^US5FAU1, or pCG-FeMV^US5FPB-AU1 in the absence or presence of the pan-cysteine protease inhibitor E64d. At 2 d.p.t. cell lysates were prepared. Medium was removed and the monolayers were rinsed twice with 1 ml cold D-PBS. Cold 1× RIPA buffer (Boston bioproducts; 200 μl) containing 1× HALT protease inhibitors (Thermo Fisher Scientific) was added to the monolayers and incubated on ice for 15 minutes. Monolayers were scraped into the buffer and transferred to cold 1.5 ml tubes. Lysates were incubated on ice for 30 minutes with intermittent vortexing before being centrifuged at 14,000 g for 15 minutes at 4° C. to pellet nuclei. The cleared supernatants were used to prepare samples for polyacrylamide gel electrophoresis (PAGE) by adding appropriate volumes of 4× NUPAGE™ LDS sample loading buffer and ×10 NUPAGE™ reducing agent (both Thermo Fisher Scientific Scientific). PAGE samples were heated to 70° C. for 10 minutes before separation of proteins on a 10% NUPAGE™ bis-TRIS polyacrylamide gel using the Xcell SureLock Mini-Cell system (Thermo Fisher Scientific Scientific) according to manufacturer's instructions. An aliquot of SeeBlue Plus2 Protein Standard was included on each gel to allow estimation of protein sizes. […]
(In general: In western blotting, separated proteins are transferred to a membrane and probed.)

For the next assay, the system named is FeMV^US5FPB. The assay is described as above. The assay is classed as cell-based, Feline morbillivirus (FeMV). The conditions noted are these: E64d 20 μM vs DMSO; transfected CRFK cells, lysates at 2 d.p.t. On the procedure:
as §1

The test system of assay [5] is FeMV F and H glycoproteins. The assay is classed as cell-based, Feline morbillivirus (FeMV).
For another assay, the system named is FeMV^US5FPB protein. The assay is classed as cell-based, Feline morbillivirus (FeMV).
Assay [6] deals with CDV^RI F and H glycoproteins. The assay is classed as cell-based.
For assay [7], the system named is MV^KS F and H glycoproteins. The assay is classed as cell-based.
The next assay has as its system FeMV. The conditions noted are these: trypsin added during virus titration in CRFK cells; cited from earlier work.

Turning to `CCCNC(=O)[C@H]1O[C@@H]1C(=O)N[C@H](C(=O)N1CCC[C@H]1C(=O)OC)[C@@H](C)CC` [CA-074Me], in the assay on rFeMV^US5Venus (6) [1], the “cell-to-cell fusion and spread by rFeMV^US5Venus (6) and rFeMV^US5Venus (3)” value is “prevented cell-to-cell fusion and spread”; the “spread of rFeMV^US5Venus (6) infection” value is “limited to single cells with no spread from the initially infected cell”; the “virus entry and initial replication in cells” value was “can enter and initially replicate in cells equivalently to the no inhibitor control”. Further, the “rFeMV^US5-induced cell-to-cell fusion (luciferase activity)” value (shortened to “rFeMV^US5-induced cell-to-cell fusion”) in the assay on rFeMV^US5Venus (6) [2] is reported as “reduced; also recorded: inhibited”. Also, the infectious virus titers entry in assay [3] is given as “reduced the infectious virus titers by two logs”.
With `CCOC(=O)[C@H]1O[C@@H]1C(=O)N[C@@H](CC(C)C)C(=O)NCCC(C)C` [E64d], in assay [4], the “NiV^MA glycoprotein-induced fusion” value was “significantly reduced”. Moreover, in the assay with rFeMV^US5Venus (6) [1], the “cell-to-cell fusion and spread by rFeMV^US5Venus (6) and rFeMV^US5Venus (3)” value was “prevented cell-to-cell fusion and spread”; the “spread of rFeMV^US5Venus (6) infection” value is on record as “limited to single cells with no spread from the initially infected cell”; the “virus entry and initial replication in cells” value is “can enter and initially replicate in cells equivalently to the no inhibitor control”. Besides, the “rFeMV^US5-induced cell-to-cell fusion” value with rFeMV^US5Venus (6) [2] is recorded as “reduced”. In [3], the infectious virus titers result is reported as “reduced the infectious virus titers by two logs”. Besides, the “FeMV^US5F processing (F0 to F1 subunit)” value in the assay on FeMV^US5F is recorded as “prevented FeMV^US5F processing”. In addition, in the assay on FeMV^US5FPB, the “FeMV^US5FPB (polybasic cleavage signal) F0 processing” value was “no longer prevented F0 glycoprotein processing”. Besides, the FeMV glycoprotein-induced fusion entry in assay [5] is listed as “significantly reduced; also recorded: inhibited”. Moreover, in the assay on FeMV^US5FPB protein, the “fusion activity with FeMV^US5FPB protein” value was “no longer affected the fusion activity”.
As to `CCCCCCCCCC(=O)N[C@@H](CCCN=C(N)N)C(=O)N[C@H](C(=O)N[C@@H](CCCCN)C(=O)N[C@@H](CCCN=C(N)N)C(=O)CCl)C(C)C` [furin inhibitor I] (Decanoyl-RVKR-CH2Cl), the “spread of rFeMV^US5Venus (6) infection” value in the assay with rFeMV^US5Venus (6) [1] is “had spread significantly”. The “CDV^RI glycoprotein-induced fusion” value in assay [6] is “reduced”. Further, in the assay with rFeMV^US5Venus (6) [2], the “rFeMV^US5-induced cell-to-cell fusion” value is listed as “no difference in luciferase activity”. Besides, the “MV^KS glycoprotein-induced fusion” value in assay [7] was “reduced”. Moreover, the FeMV glycoprotein-induced fusion result in assay [5] is recorded as “unaffected”. Also, the “fusion activity with FeMV^US5FPB protein” value in the assay with FeMV^US5FPB protein is reported as “significantly reduced fusion”.

B1: trypsin (protein, UniProt P00760 24-246, looked up)
Serine protease 1: IVGGYTCGANTVPYQVSLNSGYHFCGGSLINSQWVVSAAHCYKSGIQVRLGEDNINVVEGNEQFISASKSIVHPSYNSNTLNNDIMLIKLKSAASLNSRVASISLPTSCASAGTQCLISGWGNTKSSGTSYPDVLKCLKAPILSDSSCKSAYPGQITSNMFCAGYLEGGKDSCQGDSGGPVVCSGKLQGIVSWGSGCAQKNKPGVYTKVCNYVSWIKQTIASN
notes: exogenous protease added to fusion assays or virus titration
Turning to B1, the “effect of trypsin on resultant virus titers” value in the assay with FeMV is recorded as “did not augment the resultant virus titers”. In addition, in assay [5], the “effect of exogenous trypsin on FeMV glycoprotein-induced cell-to-cell fusion” value is “did not enhance fusion”.
